Values quoted from earlier work, collected in patent US10851223B2, “Use of a cyclodextrin polycondensate or a composition comprising such a polycondensate, as a capturing agent” (BIOSTART, priority 2016, dated 2020).

Conditions: octanol/water

| Structure (SMILES) | Log Kow |
| --- | --- |
| Clc1cc(Cl)c(-c2cc(Cl)c(Cl)cc2Cl)cc1Cl [PCB 153] | 7.21 |
| Clc1ccc(-c2cc(Cl)c(Cl)cc2Cl)cc1Cl [PCB 118] | 6.84 |
| Clc1cc(Cl)c(-c2cc(Cl)c(Cl)c(Cl)c2Cl)cc1Cl [PCB 180] | 7.7 |
| Clc1ccc(Cl)c(-c2cc(Cl)ccc2Cl)c1 [PCB 52] | 6.12 |
| CCCCC(CC)COC(=O)c1ccccc1C(=O)OCC(CC)CCCC (stereo not shown) [di(2-ethylhexyl)-phthalate] | 7.6 |
| c1ccc2c(c1)c1cccc3ccc4cccc2c4c31 [benzopyrene] | 6.07 |
| Clc1cc(Cl)c(-c2ccc(Cl)c(Cl)c2Cl)cc1Cl [PCB 138] | 7.25 |
| Clc1ccc(Cl)c(-c2cc(Cl)c(Cl)cc2Cl)c1 [PCB 101] | 6.8 |
| CN(C)C(=O)Nc1ccc(Cl)c(Cl)c1 [Diuron] | 2.68 |
| Clc1ccc(-c2ccc(Cl)cc2Cl)cc1 [PCB 28] | 5.62 |
